Key:
Plasmodium falciparum [1] = assay: NOVARTIS: Inhibition of Plasmodium falciparum W2 (drug-resistant) proliferation in erythrocyte-based infection assay; type: functional, organism-based; details: Plasmodium falciparum, W2; read-out: EC50
Plasmodium falciparum [2] = assay: NOVARTIS: Inhibition of Plasmodium falciparum 3D7 (drug-susceptible) proliferation in erythrocyte-based infection assay; type: functional, organism-based; details: Plasmodium falciparum, 3D7
[3] = NOVARTIS: Cytotoxicity against human hepatocellular carcinoma cell line (Huh7); type: toxicity, cell-based, Huh-7; details: Huh7 cells (hepatocellular carcinoma cell line)

Row | Compound | EC50 (Plasmodium falciparum [1]) [nM] | EC50 (Plasmodium falciparum [2]) [nM] | CC50 [3] [nM]
1 | CC1Cc2ccc(F)cc2CN1C(=O)c1ccc(COc2ccccc2Br)o1 (configuration not stated) | 6350 | 8370 | > 100000
2 | Cc1ccc(C)n1-c1ccc(N(C)C)cc1 | 1330 | 2930 | 50900
3 | O=C1C(N2CCCCC2)=C(N2CCCCC2)C(=O)c2ccccc21 | 34.1 | 137 | 24900
4 | COc1ccc(-c2cc(C(F)(F)F)n3ncc(C(=O)Nc4cccc(Cl)c4Cl)c3n2)cc1OC | 275 | 2610 | > 100000
5 | O=C(CN1C(=O)c2ccccc2C1=O)Nc1cc(Cl)ccc1C(=O)O | 486 | > 1250 | > 10000
6 | CC(CCCNCCO)Nc1ccnc2cc(Cl)ccc12 (configuration not stated) [CLETOQUINE] | 736 | 26.9 | 14000
7 | CCC1CC2CCC(O2)C(C)C(=O)OC(C)CC2CCC(O2)C(C)C(=O)OC(CC)CC2CCC(O2)C(C)C(=O)OC(C)CC2CCC(O2)C(C)C(=O)O1 (configuration not stated) | 228 | 162 | 356
8 | COc1ccc(OC)c(-c2ccc(O)c(CNCC3(O)CCCCC3)c2)c1 | 762 | 818 | > 10000
9 | Cn1cnc2cc(OC3CCN(Cc4ccco4)CC3)ccc21 | 192 | 216 | > 4340
10 | COc1ccc(C2CC(=O)C3=C(C2)NC(C)=C(C(=O)OC(C)C)C3c2ccccc2Br)cc1 (configuration not stated) | 28.5 | 62 | > 100000
11 | CCOC(=O)c1c[nH]c2c(CC)cccc2c1=O | 2650 | 1660 | > 100000
12 | CCN1CCCC1CNC(=O)CN1N=C(c2ccccc2)Cn2c(cc3ccccc32)C1=O (configuration not stated) | > 1130 | > 1250 | > 10000
13 | COc1ccc(C[C@H](N)C(=O)N[C@H]2[C@@H](O)[C@H](n3cnc4c(N(C)C)ncnc43)O[C@@H]2CO)cc1 [PUROMYCIN] | 328 | 611 | 6630
14 | COC(=O)C1=C(C)NC2=C(C(=O)CC(c3ccc(OC)c(OC)c3)C2)C1c1ccccc1C (configuration not stated) | 31.7 | 125 | > 100000
15 | CN(CCCNc1ccnc2cc(Cl)ccc12)S(=O)(=O)c1cc(Cl)ccc1Cl | 251 | 398 | > 12200
16 | O=c1cc(C(F)(F)F)c2cc(Cl)c(O)cc2o1 | 2120 | > 12500 | > 100000
17 | Cn1c(=O)[nH]c(=O)c2c1nc(N1CCCCCC1)n2CC(O)COc1ccc([N+](=O)[O-])cc1 (configuration not stated) | 1860 | > 12500 | > 100000
18 | COc1ccc(S(=O)(=O)ON=C2C=C(C(C)C)C(=O)C=C2C)cc1 | 296 | 834 | 18300
19 | C=CCc1cccc(C=NNc2nc3ccccc3[nH]2)c1O | 928 | 657 | > 100000
20 | Nc1nonc1-n1nnc(-c2ccccc2)c1C(=O)NN=Cc1ccc(F)c(Br)c1 | 119 | 342 | > 100000
21 | CCN1CCN(c2cc(C)c3cc(NC(=O)c4ccc(F)c([N+](=O)[O-])c4)ccc3n2)CC1 | 365 | 1160 | 42900
22 | CCOC(=O)C1=C(C)NC2=C(C(=O)CCC2)C1c1ccc([N+](=O)[O-])cc1 (configuration not stated) | 570 | 902 | > 100000
23 | Cc1cc(C)c(CSC(=N)N)c(C)c1CSC(=N)N | > 1140 | 1120 | > 10000
24 | O=C(NC(CN1CCCC1)c1ccccc1)C1CCCCN1S(=O)(=O)c1ccc(Cl)cc1 (configuration not stated) | 514 | 189 | 18600
25 | FC(F)(F)c1cccc(CNC2CCN(CCc3ccccc3)CC2)c1 | 487 | 174 | 7390

Row | Compound | EC50 (Plasmodium falciparum [1]) [nM] | EC50 (Plasmodium falciparum [2]) [nM] | CC50 [3] [nM]
26 | CCOC(=O)c1c(C)[nH]c(C)c1S(=O)(=O)N1CCCC(C(=O)N2CCN(c3cc(C)ccc3C)CC2)C1 (configuration not stated) | 367 | 231 | > 82300
27 | C[C@@H]1C[C@@H](C)C(=O)[C@@H](C(O)CC2CC(=O)NC(=O)C2)C1 (some centres not stated) | 366 | 153 | 2140
28 | CCCC(=O)O[C@]1(C(=O)CCl)[C@@H](C)CC2C3CCC4=CC(=O)C=C[C@]4(C)[C@@]3(F)C(=O)C[C@@]21C (some centres not stated) | 283 | 1680 | > 10000
29 | O=C(CCl)NCCNc1ncc(C(F)(F)F)cc1Cl | 612 | 453 | 17800
30 | CCOc1ccccc1C1C(C#N)=C(SCC(=O)Nc2ccc(Cl)cc2)NC(C)=C1C(=O)Nc1ccccc1 (configuration not stated) | 107 | 352 | > 100000
31 | CC(C)CNC(=O)c1cnc(NCCCN2CCCCC2C)nc1NCC1CCCCC1 (configuration not stated) | 1170 | 434 | > 10000
32 | COc1ccc(Cn2c(SCC(=O)Nc3ccccc3OC)nc3ccsc3c2=O)cc1 | > 1250 | > 778 | > 10000
33 | COC(=O)COc1ccc(/C=C2/SC(=Nc3ccc(F)cc3)NC2=O)cc1 | 1850 | > 12500 | > 100000
34 | CN(CCCNc1ccnc2cc(Cl)ccc12)C(=O)c1ccc(-c2ccccc2)cc1 | < 15.6 | 326 | 10000
35 | COCCNC(=O)c1ccc(NCCc2ccc(Cl)cc2)c(S(=O)(=O)Nc2cccc(C(F)(F)F)c2)c1 | 6520 | 7340 | > 100000
36 | CC12CN(Cc3ccccc3)CC(C)(CN(Cc3cccc(Br)c3)C1)C2 | 819 | 3620 | 47200
37 | CC1=[N+](CC(=O)c2ccc(C)cc2)CCn2c(C)ccc21 | 1660 | 1050 | > 100000
38 | O=C(Nc1ccc(Cl)cc1Cl)c1ccc(-c2nc(-c3ccccc3Cl)cs2)cc1 | 106 | 150 | > 7930
39 | CCCCCCn1c2c(c(=N)c3c1CCC3)CCCC2 | 336 | 364 | > 10000
40 | CC(C)(C)CC(=O)NCCCCNc1ccnc2cc(Cl)ccc12 | 102 | 20.7 | > 12200
41 | CCN(CC)C(=O)CSc1nnc(-c2ccccn2)n1-c1ccc(OC)cc1 | < 5.58 | 1290 | 3190
42 | Cc1cc(Cl)c(S(=O)(=O)N2CCCC2)cc1OCC(=O)NC1CCCCC1 | 141 | 95.6 | > 100000
43 | Cc1ccccc1Cn1c(=N)n(CC(O)c2ccc(Cl)c(Cl)c2)c2ccccc21 (configuration not stated) | 38.4 | 135 | 13300
44 | CCn1c(C)cc(/C=C2\C(=O)NC(=O)N(c3cccc(Cl)c3)C2=O)c1C | 679 | > 674 | > 10000
45 | COc1ccc(/C=C/c2ccc3ccccc3[n+]2C)cc1 | 30.4 | 133 | > 10000
46 | COc1cccc(OC)c1C(=O)Nc1cc(C(F)(F)F)ccc1Cl | 1810 | > 1250 | > 10000
47 | FC(F)(F)COc1ccc(OCC(F)(F)F)c(-c2ncnn2-c2ccccc2)c1 | > 12500 | > 9910 | > 100000
48 | CCOC(=O)C1=C(N)OC2=C(C(=O)CC(c3ccccc3)C2)C1c1ccc(Cl)cc1Cl (configuration not stated) | > 600 | > 1250 | > 10000
49 | Cc1cccc(-c2ccc(NC(=O)C3CCN(Cc4cnc(C)nc4)CC3)cc2)c1 | > 12500 | > 6880 | > 100000
